According to US5874235A, “Screening assays for cancer chemopreventative agents” (The Johns Hopkins University, priority 1997, dated 1999):

Assays:
[1] = tested on: immortalized human keratinocytes (HaCat); assay: Apoptosis in immortalized keratinocytes; assay type: cell-based; conditions: 48 h, read-out: cells that had undergone apoptosis
Experimental: (§1) This ability of SUS is not limited to colon cancer cells; primary fibroblasts and immortalized keratinocytes can increase ceramide levels and undergo apoptosis in response to SUS. […] Forty-eight hours after exposure to 200 μM SUS greater than 70% of the cells had undergone apoptosis and ceramide levels were 8.2 and 4.7 fold increased in HDF and HaCat cells, respectively. This is consistent with NSAIDs' ability to reduce tumor formation in a variety of tissues (19) and their adverse effects on normal gastric mucosa, but it fails to explain the apparent greater sensitivity of tumor cells. The in vivo effect will likely depend on the local concentration of the NSAID in the incipient tumor microenvironment as well as the target cell's "lipid biostat" (20). The fact that the concentration of SUS is higher in the intestines than in other organs, due to enterohepatic circulation and due to the metabolic activation of sulindac to SUS by gut flora (21), may be responsible for its particular efficacy in intestinal tumorigenesis.

[2] = tested on: primary human diploid fibroblast (HDF); assay: Apoptosis in primary fibroblasts; assay type: cell-based; conditions: 200 μM SUS, 48 hours, read-out: cells that had undergone apoptosis
Experimental: as §1

COX in HCT116 cells = assay: COX activity in treated cells; assay type: cell-based, human
HCT116 cells = assay: Ceramide levels, E. coli diacylglycerol (DAG) kinase assay; assay type: cell-based, human
Experimental: (§2) Cells were harvested and ceramide was quantified. The first lane of each panel corresponds to a ceramide standard (ceramide type III, Sigma). […] HCT116 and SW480 cells were treated with SUS or INDO as indicated. Ceramide levels were determined as described above. […] Control cells were treated with DMSO vehicle only. Cells were harvested at the indicated times following treatment and ceramide levels were determined as described above. The data are plotted as the mean of at least two experiments with the error bars corresponding to the standard deviation.
(§3) Ceramide levels were measured using the Escherichia coli diacylglycerol (DAG) kinase assay as previously described (30) with the following modifications. After the initial lipid extraction, phases were broken by adding 2 ml chloroform and 2 ml 1M NaCl and lipids were washed with 1M NaCl prior to drying under nitrogen (32, 33). After solubilization, samples were sonicated for 15 seconds. The DAG reaction was performed for 30 minutes at 25° C. in a 100 μl reaction volume with 3.5 μg DAG kinase (Calbiochem) and […] γ^32 P-ATP (Dupont NEN, 6000 Ci/mmol). After extraction of the labeled lipids, the lower chloroform phase was washed with 1% HCl prior to drying under nitrogen. The solvent mixture for thin layer chromatography was chloroform:acetone:methanol:acetic acid:water (10:4:3:2:1). Samples were quantitated using a Phosphorimager (Molecular Dynamics).

SW480 cells = assay: as above; assay type: cell-based, human
Experimental: as §2, §3

[3] = tested on: neutral sphingomyelinase in HCT116 cell lysates; assay: Neutral sphingomyelinase activity in lysates of treated cells (14C-sphingomyelin hydrolysis); assay type: cell-based, human; conditions: for neutral sphingomyelinase activity relative to untreated controls: 200 μM SUS
Experimental: (§4) To test whether the increased ceramide was associated with evidence of augmented sphingomyelinase activity, we measured total sphingomyelin levels after SUS treatment. […] We also measured neutral sphingomyelinase activity in lysates from the treated cells and no differences were found. Neutral sphingomyelinase activity was assayed as described (18). After cell lysis, protein concentrations were determined using the Bradford method (Bio-Rad) and […] cellular protein was used in each assay. Neutral sphingomyelinase activity was determined by measuring the rate of hydrolysis of ^14 C-labelled sphingomyelin (Amersham). SW480 and HCT116 cell lines were treated with SUS (50, 200, and 600 μM) for 6 to 24 hours.

[4] = tested on: neutral sphingomyelinase in SW480 cell lysates; assay: as above; assay type: cell-based, human; conditions: SUS 50, 200 and 600 μM, 6 to 24 hours
Experimental: as §4

[5] = 8 hours post-treatment, before morphologic features of apoptosis

## CSc1ccc(/C=C2/C(C)=C(CC(=O)O)c3cc(F)ccc32)cc1 [SUS, sulindac sulfide]
[1]
  cytotoxicity at 200 µM: > 70%
[2]
  cytotoxicity at 200 µM: > 70%
COX in HCT116 cells; 50 μM SUS
  COX activity, % relative to controls: 98+/-30%
COX in HCT116 cells; 125 μM SUS
  COX activity, % of controls: 21+/-15%
HCT116 cells; [5]
  ceramide levels early after treatment: increased to substantial levels
HCT116 cells; Homo sapiens, HCT-116, SUS 125 μM, with or without 10 μM CHX, 48 hours, read-out: fold increase in ceramide levels relative to vehicle controls
  fold induction at 125 µM: 10 ± 0.4
HCT116 cells; SUS 50 μM
  ceramide induction: induced neither
HCT116 cells; SUS 125 μM
  ceramide induction: induced both cell death and ceramide
  time of maximum ceramide induction: 24 to 48 h
SW480 cells; [5]
  ceramide levels early after treatment: increased to substantial levels
SW480 cells; Homo sapiens, SW480, SUS 200 μM, with or without 10 μM CHX, 48 hours, read-out: fold increase in ceramide levels relative to vehicle controls
  fold induction at 200 µM: 9.2 ± 0.1
SW480 cells; SUS
  magnitude of the ceramide increase: 10 fold
SW480 cells; SUS 50 μM
  ceramide induction: did not induce ceramide
SW480 cells; SUS 100 μM
  ceramide induction: not at 100 μM
SW480 cells; SUS 200 μM
  ceramide induction: induced both ceramide and cell death
  time of maximum ceramide induction: 24 to 48 h
SW480 cells; suboptimal doses, 100 μM each, separately or together, 48 hours
  effect on ceramide levels: little effect on ceramide levels
[3]; 6 hours
  neutral sphingomyelinase activity relative to untreated controls: 90%
[3]; 16 hours
  neutral sphingomyelinase activity relative to untreated controls: 92%
[3]; SUS 50, 200 and 600 μM, 6 to 24 hours
  neutral sphingomyelinase activity in cell lysates: None of these treatments enhanced neutral sphingomyelinase activity
[4]
  neutral sphingomyelinase activity in cell lysates: None of these treatments enhanced neutral sphingomyelinase activity
